Measured values taken from US20220387604A1, “SELECTIVE DUAL HISTONE DEACETYLASE 6/8 (HDAC6/8) DEGRADERS AND METHODS OF USE THEREOF” (DANA-FARBER CANCER INSTITUTE, INC., priority 2019, published 2022).

Columns and labels:
[1] = target: T1, full length human HDAC8-EGFP (Homo sapiens, UniProt Q9BY41); experiment: HDAC8 reporter assay (HDAC8-EGFP with mCherry reporter); format: cell-based; details: 5 hour treatment, FIG. 6; hook effect at higher concentrations
T1 construct: Cells stably expressing the full length human HDAC8-EGFP with mCherry reporter; expressed in transfected cells; Cilantro2 vector (Addgene, 74450)
T1 sequence (Q9BY41 1-377): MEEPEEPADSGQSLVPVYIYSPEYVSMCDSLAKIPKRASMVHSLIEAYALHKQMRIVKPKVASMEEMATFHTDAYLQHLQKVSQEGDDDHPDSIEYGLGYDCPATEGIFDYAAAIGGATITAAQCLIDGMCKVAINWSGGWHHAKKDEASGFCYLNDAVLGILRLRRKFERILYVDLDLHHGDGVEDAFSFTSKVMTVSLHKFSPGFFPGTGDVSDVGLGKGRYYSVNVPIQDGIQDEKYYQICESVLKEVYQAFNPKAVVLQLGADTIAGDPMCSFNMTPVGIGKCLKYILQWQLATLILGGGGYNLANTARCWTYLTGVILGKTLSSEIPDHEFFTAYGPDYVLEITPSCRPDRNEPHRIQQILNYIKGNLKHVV
Protocol: Cells stably expressing the full length human HDAC8-EGFP with mCherry reporter in Cilantro2 vector (Addgene, 74450) were seeded at 30-50% confluency in 384-well plates with 50 μL FluoroBrite™ DMEM media (Thermo Fisher Scientific, A18967) containing 10% FBS per well a day before compound treatment. Compounds were dispensed using a D300e Digital Dispenser (HP), normalized to 0.5% DMSO, and incubated with cells for 5 hours. The assay plate was imaged immediately using an Acumen® High Content Imager (TTP Labtech) with 488 nm and 561 nm lasers in […] per well format. The resulting images were analyzed using CellProfiler™.
A series of image analysis steps (‘image analysis pipeline’) was constructed. First, the red and green channels were aligned and cropped to target the middle of each well (to avoid analysis of heavily clumped cells at the edges), and a background illumination function was calculated for both red and green channels of each well individually and subtracted to correct for illumination variations across the 384-well plate from various sources of error. An additional step was then applied to the green channel to suppress the analysis of large auto fluorescent artifacts and enhance the analysis of cell specific fluorescence by way of selecting for objects under a given size, 30 A.U., and with a given shape, speckles. mCherry-positive cells were then identified in the red channel filtering for objects between 8-60 pixels in diameter and using intensity to distinguish between clumped objects. The green channel was then segmented into GFP positive and negative areas and objects were labeled as GFP positive if at least 40% of it overlapped with a GFP positive area. The fraction of GFP-positive cells/mCherry-positive cells in each well was then calculated, and the green and red images were rescaled for visualization. The values for the concentrations that lead to a 50% degradation (DC50) were calculated using the nonlinear fit variable slope model in GraphPad Prism software.

[2] = test system: HDAC6/8; experiment: Quantitative proteomics of cellular protein abundance in Kelly cells: HDAC6/8; format: cell-based, human; details: moderated t-test, scatter plots FIG. 2A-2C, 4A-4B
Protocol: Lysis buffer (8 M Urea, 50 mM NaCl, 50 mM 4-(2hydroxyethyl)-1-piperazineethanesulfonic acid (EPPS) pH 8.5, protease and phosphatase inhibitors from Roche®) were added to the cell pellets and homogenized by 20 passes through a 21 gauge (1.25 in. long) needle to achieve a cell lysate with a protein concentration between 1-4 mg mL^−1. A micro-BCA assay (Pierce™) was used to determine the final protein concentration in the cell lysate. 200 μg of protein for each sample were reduced and alkylated as described in Donovan et al., Elife 7:e38430 (2018).
Proteins were precipitated using methanol/chloroform. Four volumes of methanol were added to the cell lysate, followed by one volume of chloroform, and finally three volumes of water. The mixture was vortexed and centrifuged to separate the chloroform phase from the aqueous phase. The precipitated protein was washed with three volumes of methanol, centrifuged and the resulting washed precipitated protein was allowed to air dry. The precipitated protein was resuspended in 4 M Urea, 50 mM HEPES pH 7.4, followed by dilution to 1 M urea with the addition of 200 mM EPPS, pH 8. Proteins were first digested with LysC (1:50; enzyme:protein) for 12 hours at room temperature. The LysC digestion was diluted to 0.5 M Urea with 200 mM EPPS pH 8 followed by digestion with trypsin (1:50; enzyme:protein) for 6 hours at 37° C. Tandem mass tag (TMT) reagents (Thermo Fisher Scientific) were dissolved in anhydrous acetonitrile (ACN) according to manufacturer's instructions.
Anhydrous ACN was added to each peptide sample to a final concentration of 30% v/v, and labeling was induced with the addition of TMT reagent to each sample at a ratio of 1:4 peptide:TMT label. The 10-plex labeling reactions were performed for 1.5 hours at room temperature and the reaction quenched by the addition of hydroxylamine to a final concentration of 0.3% for 15 minutes at room temperature. The sample channels were combined at a 1:1:1:1:1:1:1:1:1:1:1 ratio, desalted using C18 solid phase extraction cartridges (Waters®) and analyzed by LC-MS for channel ratio comparison. Samples were then combined using the adjusted volumes determined in the channel ratio analysis and dried down in a speed vacuum. The combined sample was then resuspended in 1% formic acid, and acidified (pH 2-3) before being subjected to desalting with C18 SPE (Sep-Pak®, Waters®). Samples were then offline fractionated into 96 fractions by high pH reverse-phase HPLC (Agilent® LC1260) through an aeris peptide xb-c18 column (Phenomenex®) with mobile phase A containing 5% acetonitrile and 10 mM NH4HCO3 in LC-MS grade H2O, and mobile phase B containing 90% acetonitrile and 10 mM NH4HCO3 in LC-MS grade H2O (both pH 8.0). The 96 resulting fractions were then pooled in a non-continuous manner into 24 fractions and these fractions were used for subsequent mass spectrometry analysis.
Data were collected using an Orbitrap Fusion™ Lumos™ mass spectrometer (Thermo Fisher Scientific, San Jose, Calif., USA) coupled with a Proxeon EASY-nLC™ 1200 LC pump (Thermo Fisher Scientific). Peptides were separated on an EasySpray™ ES803 75 μm inner diameter microcapillary column (ThermoFisher Scientific).
Each analysis used an MS3-based TMT method as described in McAlister et al., Anal. Chem. 86(14):7150-7158 (2014). The data were acquired using a mass range of m/z 340-1350, resolution 120,000, automatic gain control (AGC) target 1×10^6, maximum injection time 100 ms, dynamic exclusion of 120 seconds for the peptide measurements in the Orbitrap Fusion™ Lumos™ mass spectrometer. Data dependent MS2 spectra were acquired in the ion trap with a normalized collision energy (NCE) set at 55%, AGC target set to 1.5×10^5 and a maximum injection time of 150 ms. […]

Structure (SMILES)	degradation of GFP tagged HDAC8 in the reporter cell lines [1]	reduction in HDAC6/8 protein levels compared to DMSO treated cells [2]
O=C(/C=C/c1ccc(CN(CCOCCOCCOCCNc2cccc3c2C(=O)N(C2CCC(=O)NC2=O)C3=O)CCc2c[nH]c3ccccc23)cc1)NO (stereo not drawn) [Compound 4, (E)-3-(4-(2-(2-(1H-indol-3-yl)ethyl)-13-((2-(2,6-dioxopiperidin-3-yl)-1,3-dioxoisoindolin-4-yl)amino)-5,8,11-trioxa-2-azatridecyl)phenyl)-N-hydroxyacrylamide]	degradation of GFP tagged HDAC8	
O=C(/C=C/c1ccc(CN(CCOCCOCCOCCOCCNc2cccc3c2C(=O)N(C2CCC(=O)NC2=O)C3=O)CCc2c[nH]c3ccccc23)cc1)NO (stereo not drawn) [Compound 5, (E)-3-(4-(2-(2-(1H-indol-3-yl)ethyl)-16-((2-(2,6-dioxopiperidin-3-yl)-1,3-dioxoisoindolin-4-yl)amino)-5,8,11,14-tetraoxa-2-azahexadecyl)phenyl)-N-hydroxyacrylamide]	degradation of GFP tagged HDAC8	significant reduction
